From PubChem BioAssay (NCI)
Several values for one entry are separate records, joined by “and”; a condition that tells them apart may be missing. Equal entries are not always repeated.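 These data come from cells grown in 96-well plates and exposed to compound for 48 hours at five concentrations. GI50 marks 50% less growth. TGI marks complete inhibition of growth.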

Experiments:
Test in all cases: growth of human tumour cells (NCI), 48 h
A498 renal = tested on: A498 renal
BT-549 breast = tested on: BT-549 breast
HCT-116 colon = tested on: HCT-116 colon
HCT-15 colon = tested on: HCT-15 colon
NCI-H226 lung = tested on: NCI-H226 lung
NCI/ADR-RES ovarian = tested on: NCI/ADR-RES ovarian
SF-539 CNS = tested on: SF-539 CNS
SN12C renal = tested on: SN12C renal
U251 CNS = tested on: U251 CNS
UACC-257 melanoma = tested on: UACC-257 melanoma

Row | SMILES | GI50 (A498 renal) [µM] | TGI (A498 renal) [µM] | GI50 (BT-549 breast) [µM] | TGI (BT-549 breast) [µM] | GI50 (HCT-116 colon) | TGI (HCT-116 colon) [µM] | GI50 (HCT-15 colon) [µM] | TGI (HCT-15 colon) [µM] | GI50 (NCI-H226 lung) [µM] | TGI (NCI-H226 lung) [µM] | GI50 (NCI/ADR-RES ovarian) [µM] | TGI (NCI/ADR-RES ovarian) [µM] | GI50 (SF-539 CNS) [µM] | TGI (SF-539 CNS) | GI50 (SN12C renal) [µM] | TGI (SN12C renal) [µM] | GI50 (U251 CNS) [µM] | TGI (U251 CNS) [µM] | GI50 (UACC-257 melanoma) [µM] | TGI (UACC-257 melanoma) [µM]
1 | Cn1c(I)c(C#C[Si](C)(C)C)c(=O)n(C(=O)c2ccccc2)c1=O | 10.9 | 24.3 | 12.2 | 25.6 | 1.74 µM | 3.44 | 2.45 | 7.3 | 7.44 | 21.7 | 22.4 | 48.8 | 5.3 | 12.1 µM | 6.26 | 18.8 | 12.5 | 25 | 11.6 | 24.6
2 | N=C1CCCC1C(=S)SCCC(N)=O (configuration not stated) |  | > 100 |  | > 100 |  | > 100 |  | > 100 |  | > 100 |  | > 100 |  | > 100 µM |  | > 100 |  | > 100 |  | > 100
3 | COC1=CC(c2ccc[nH]2)=N/C1=C\c1[nH]c(C)c(C(=O)CCCCCCCCC(=O)O[C@H]2CC[C@H]3C4CCc5cc(O)ccc5C4CC[C@]23C)c1C (some centres not stated) | 1.28 | > 43.8 | 0.618 | > 45.1 | 0.159 µM | > 22.1 | 1.55 | > 50 | 2.99 | > 11.4 | 25.9 | > 50 | 0.46 | > 50 µM | 0.6 | > 50 | 0.331 | > 50 | 3.62 | > 50
4 | Nc1cc2c3c(cccc3c1)C(=O)N(CCN1CCCC1)C2=O | 2.54 | 7.89 | 6.49 | 29.8 | 2.73 µM | > 35 | 2.02 | > 100 | 1.98 | 6.23 | 3.62 | > 51.4 | 3.87 | 18.2 µM | 2.73 | > 84.8 | 3.4 | > 100 | 3.35 | 24.5
5 | COC(=O)C(C(=O)C(=O)Nc1c(C)cccc1C(C)(C)C)c1nc2ccc(Cl)cc2[nH]c1=O (configuration not stated) |  | > 100 |  | > 100 |  | > 100 |  | > 100 |  | > 100 |  | > 100 |  | > 100 µM |  | > 100 |  | > 100 |  | > 100
6 | [N-]=[N+]=CC(=O)CCC(N)C(=O)O (configuration not stated) | 7.72 | > 250 |  | > 250 | 0.457 µM and 0.955 µM | > 250 | 2 | > 222 |  | > 250 |  | > 245 | 6.31 | 48.7 µM and > 250 µM | 4.86 | 248 | 6.59 | > 250 | 78.5 | > 250
7 | COc1ccc2[nH]c(C(=O)N3CCN(C(=O)OCc4ccc5c(Cl)cc(Cl)c(O)c5n4)CC3)cc2c1 | 1.59 | 2.99 | 1.04 | 2.34 | 0.295 µM | 1.35 | 0.368 | 1.59 | 1.18 | 2.56 | 1.83 | 6.37 | 1.31 | 2.58 µM | 1.27 | 2.56 | 1.48 | 2.81 | 1.41 | 2.8
8 | O=C(Nc1ccc(Cl)cc1C(F)(F)F)C(=O)Nn1c(=S)[nH]c2ccccc2c1=O |  | > 100 |  | > 100 |  | > 100 |  | > 100 |  | > 100 |  | > 100 |  | > 100 µM |  | > 100 |  | > 100 |  | > 100
9 | Cc1ccc(/C(=N/Nc2ccc([N+](=O)[O-])cc2)Sc2cc(Cl)c(C)cc2S(N)(=O)=O)cc1 | 1.87 | 4.55 | 10.4 | 26 | 1.13 µM | 2.34 | 3.64 | > 49.6 | 1.64 | 3.57 | 2.03 | 4.91 | 1.1 | 2.97 µM | 1.69 | 3.95 | 4.34 | 16.7 | 6.45 | 18.8
10 | C[C@@]1(F)[C@H](O)[C@@H](CO)O[C@H]1n1ccc(=O)[nH]c1=O | > 100 | > 100 | > 100 | > 100 | > 100 µM | > 100 | > 100 | > 100 | > 100 | > 100 | > 100 | > 100 | > 100 | > 100 µM | > 100 | > 100 | > 100 | > 100 | > 100 | > 100
11 | CCCCCCCC(=O)OCC/C=C/C1OC1C1OC(=O)/C=C\C=C\C(=O)N(C(C)=O)C(=O)/C=C(/C)CCC2OC2C1OC(=O)NC(C)=O (configuration not stated) | 22.6 | > 25 | 6.43 | > 25 | 1.8 µM | 4.97 | 5.13 | 18.4 | 18.9 | > 25 | > 25 | > 25 | 3.68 | 7.36 µM | 7.29 | > 25 | 5.54 | 15 | 9.38 | > 25
12 | COC1=CC(=O)O/C1=C(\OC)C1OC1c1ccccc1 (configuration not stated) |  | > 100 |  | > 100 |  | > 100 |  | > 100 |  | > 100 |  | > 100 |  | > 100 µM |  | > 100 |  | > 100 |  | > 100
13 | CC1(C)CC(C)(C)c2cc(NC(=S)Nc3ccc([N+](=O)[O-])cc3)ccc2S1 | 9.16 | 19.1 | 13.2 | 28.2 | 14.9 µM | > 100 | 12.6 | 45.8 | 14.3 | 38.5 | 13.9 | 48.2 | 10.8 | 22.7 µM | 10.3 | 22.2 | 11.1 | 29.4 | 13.6 | 50.7
14 | COc1ccc(-c2ccc(OC)c(OC)c2OC)cc1 | 2.27 | > 31.2 | 1.57 | > 62.6 | 1.13 µM | 32.6 | 0.766 | > 100 | 17.3 | > 100 | 0.529 | 5.38 | 1.24 | 5.31 µM | 6.88 | > 100 | 2.01 | > 100 | > 73.8 | > 100
15 | CN(C)CCC(=O)Nc1ccc(-n2cc(-c3cccc(NC(=S)Nc4cccc(-c5cn(-c6ccc(NC(=O)CCN(C)C)cc6)nn5)c4)c3)nn2)cc1 | > 100 | > 100 | 22.9 | 66.4 | 12.7 µM | 40.4 | > 100 | > 100 | 35.3 | > 100 | > 100 | > 100 | 28.1 | 78.2 µM | 61.5 | > 100 | 21.4 | 80.8 | 26.2 | 67.4
16 | COc1cccc2c1C(=O)c1c(O)c3c(c(O)c1C2=O)C[C@@](O)(C(C)=O)CC3OC1CC(OC2CC(N)C(O)C(C)O2)C(O)C(C)O1 (some centres not stated) |  | > 100 |  | > 100 |  | > 100 |  | > 100 |  | > 100 |  | > 100 |  | > 76.8 µM |  | > 100 |  | > 87.6 |  | > 100
17 | COc1cc2c(/C=C3\C(=O)Nc4ccccc43)c[nH]c2cc1C | < 0.0243 | 16.5 | 0.294 | 15.8 | < 0.01 µM | 1.22 | 0.725 | 2.93 | 0.035 | 19.7 | < 0.01 | 0.0736 | < 0.0138 | < 0.0243 µM | 0.275 | 1.39 | 0.94 | 4.82 | < 0.01 | 26
18 | Cn1c(COC(=O)NCCn2ccnc2)nc2c(N3CCOCC3)nc(-c3ccccc3)nc21 | 1.25 | 2.53 | 0.737 | 2.04 | 0.136 µM | 0.351 | 0.193 | 0.484 | 1.72 | 3.6 | 1.54 | 5.09 | 1.17 | 2.4 µM | 0.727 | 2.06 | 1.35 | 2.87 | 1.28 | 2.86
19 | O=C1NC(=NCCc2ccc(Cl)cc2)S/C1=C\c1ccc2ncccc2c1 | 13.8 | > 25 | 13.9 | > 25 | 9.14 µM | > 25 | 12.9 | > 25 | > 25 | > 25 | 19.5 | > 25 | 15.9 | > 25 µM | > 25 | > 25 | 20.8 | > 25 | > 25 | > 25
20 | CCOC(=O)Nc1ccc2nc(-c3cscn3)[nH]c2c1 | 3.5 | 21 | 7.1 | > 100 | 3.87 µM | > 100 | 2.2 | > 100 | 30.7 | > 100 | 2.71 | > 74.9 | 3.32 | 20.6 µM | 5.6 | > 100 | 4.05 | > 100 | 5.21 | > 100
21 | CC(C)(C)C[C@H]1N[C@@H](C(=O)NC2CCC(O)CC2)[C@H](c2cccc(Cl)c2F)[C@@]12C(=O)Nc1cc(Cl)ccc12 (some centres not stated) | 1.11 | 10.3 | 3.8 | 14.1 | 0.41 µM | 11.9 | 3.92 | 18.2 | 0.238 | 1.04 | 14 | 33.9 | 3.12 | 11.5 µM | 6.26 | 21.2 | 7.86 | 21.9 | 1.16 | 13.7
22 | O=C1c2cccc3cccc(c23)C(=O)N1CCCCCN1CCN(CCN=c2cc3n(-c4ccc(Cl)cc4)c4ccccc4nc-3cc2Nc2ccc(Cl)cc2)CC1 | > 50 | > 50 | 22.2 | > 50 | 7.79 µM | 17.5 | 9.28 | 37.5 | 35.6 | > 50 | 6.95 | 19.4 | 12.1 | 31 µM | 10.4 | 26.4 | 14.2 | 40.3 | 13.7 | 31.1
23 | Cn1c(COC(=O)NCCc2ccccn2)nc2c(N3CCOCC3)nc(Cl)nc21 | 1.53 | 6.36 | 1.71 | 4.06 | 0.847 µM | 2.25 | 1.14 | 3.2 | 12.3 | 30.4 | 2.62 | 8.49 | 1.48 | 2.84 µM | 1.37 | 3.48 | 1.63 | 3.34 | 1.53 | 3.28
24 | CCC[CH2][Sn-]([CH2]CCC)([CH2]CCC)[O]C(=O)C(C)C | 0.153 | 0.286 | 0.135 | 0.312 | 0.0553 µM | 0.182 | 0.117 | 0.249 | 0.161 | 0.34 | 0.154 | 0.46 | 0.157 | 0.296 µM | 0.158 | 0.318 | 0.144 | 0.294 | 0.135 | 0.265
25 | C=C1C(=O)O[C@@H]2/C=C(/C)[C@@H](OC(C)=O)C/C=C(\C)C(O)[C@@H](OC(=O)/C(C)=C\C)C12 (some centres not stated) |  | > 100 |  | 44.3 |  | 29.8 |  | 30.3 |  | > 100 |  | 76.5 |  | > 100 µM |  | 43.1 |  | > 100 |  | > 100
26 | OCc1ccc(N(Cc2ccc(F)cc2)Cc2ccc(F)cc2)cc1Cl | 0.18 | 0.989 | 13.5 | 28.4 | 2.87 µM | 10.8 | 9.88 | 24.2 | 0.466 | 2.03 | 12.3 | 30.4 | 15.7 | 30 µM | 11.5 | 26 | 5.5 | 19.4 | 3.74 | 15.6
